Assay results from patent publication US20140286906A1, “USE OF IGF-1 IN THE MODULATION OF TREG CELL ACTIVITY AND THE TREATMENT AND PREVENTION OF AUTOIMMUNE DISORDERS OR DISEASES” (priority 2011, published 2014).

Tests used:
[1] = test system: experimental autoimmune encephalomyelitis (EAE); type: in vivo
Protocol: Regarding EAE, clinical severity of the disease is scored using a grading score from 0 to 5, where 0 means no clinical signs and 5 means a moribund paralysed mouse. As the disease progresses the body is paralysed progressively from tail to upper limbs. In these experiments the protocol described by Stromnes and Goverman (2006) is used.
Shortly, single cell suspensions are prepared from the […] and spinal cord. The resulting cells are stained with anti-CD4 antibodies and separated using fluorescent-activated cell sorting. RNA is then extracted and purified and serves as a template for a quantitative RT-PCR reaction with Taqman probes. Finally, the relative amount of each mRNA compared to a house-keeping gene (Hprt) is determined.
Based on these and our previous observations, the inventors hypothesized that systemic and prolonged delivery of IGF-1 in mice developing EAE would increase and correctly localized Tregs and thus positively affect the course of the disease. The inventors therefore implanted subcutaneously the IGF-1 delivery devices and induced EAE in mice. […] In order to determine if the amelioration of the disease was associated with an increase in T regulatory function, the inventors performed immunohistochemical analysis to determine the number and localization of T regulatory cells in the spinal cord at the early stages of the disease. […] There was therefore a negative correlation between the number of Treg cells and the observed clinical score. Moreover, both clinical improvement and increased regulatory cell number associated with IGF-1 treatment were abolished by CTLA-4 blockade, which interferes with regulatory T cell function (FIG. 26; Herman et al., 2004).
The inventors induced EAE and mice and initiated the IGF-1 treatment when the first signs of paralysis appeared (FIG. 27).

[2] = test system: CD25 negative subset (conventional T cells); assay: in vitro expansion of FACS-sorted splenic CD4+CD25- cells; type: cell-based, murine; settings: TCR stimulation with anti-CD3 and anti-CD28 antibodies
From the text: Initially, and in order to characterize the in vitro effects of IGF-1 on the different populations of the […] immune system, murine splenic CD4 positive cells were sorted by FACS based on the expression of CD25. This allows for the separation and enrichment of conventional T cells (CD25 negative) and regulatory T cells (CD25 positive). […] To exclude the possibility that the observed expansion was due to the anti-apoptotic properties of IGF-1, the cells in culture were stained with AnnexinV (a marker of apoptosis) and a vital dye, and then analyzed by flow cytometry.

[3] = test system: CD25+ splenic CD4+ cells; assay: in vitro expansion of FACS-sorted splenic CD4+CD25+ cells; type: cell-based, murine; settings: TCR stimulation with anti-CD3 and anti-CD28 antibodies
Protocol: In a preferred embodiment for expanding Treg cells in vitro/ex vivo, IGF-1 is added at a certain concentration (e.g. between 1 and 100 ng/ml) in a medium that allows for the cells to survive and grow (e.g. in mice, RPM1 1640 plus 10% fetal calf serum plus other additives including beta-mercaptoethanol, Sodium Pyruvate, Penicillin/Streptomycin, L-Glutamine or equivalent defined media). Additionally, T cells are stimulated with anti-CD3. The costimulatory agent is an antibody or ligand specific for a TCR costimulator, such as CD28 (like in example 1) or GITR, as described below.
In animal experiments, the population is isolated normally from murine spleen (but also could be isolated from other tissues, like for example but not restricted to bone marrow, adipose tissue, cord blood derived mononuclear cell, thymus, or peripheral blood) and is sorted using different markers (e.g., CD4 and CD25). This population is defined as CD4+CD25+ and includes the regulatory cells. This population is then treated in the above-mentioned medium in the presence of IGF-1. After several days of culture part of the cells are counted, fixed, permeabilized and analyzed by flow cytometry using an anti-FOXP3 antibody in combination with the same extracellular markers (CD4 and CD25). This allows for the determination of the absolute number of FOXP3 positive cells present in the culture. […]

[4] = RT-PCR day 27, compared to control mice

Insulin-like growth factor-1 [IGF-1]
Foxp3 expression in CD4 positive cells of the spinal cord [1, 4]: increase
IL-10 expression in CD4 positive cells of the spinal cord [1, 4]: increase
IL-17 expression in CD4 positive cells of the spinal cord [1, 4]: decrease
interferon-gamma expression in CD4 positive cells of the spinal cord [1, 4]: decrease
Treg cell number in the spinal cord (immunohistochemistry) ([1]; early stages of the disease): increase in Treg cell number
detrimental effect in EAE ([1]; mouse, in vivo): never showed a detrimental effect
mortality ([1]; prophylactic or therapeutic manner, n=34, P=0.028): significantly reduced mortality
clinical outcome (clinical grading) ([1]; prophylactic: delivery device implanted day -3, immunization day 0, 4 weeks, n=13): improved clinical outcome
clinical severity ([1]; therapeutic: applied after onset of disease (day 11), P<0.05 from day 13): reduced clinical severity
in vitro expansion of CD25 negative subset [2]: no reproducible effect
in vitro expansion of CD25 positive subset [3]: consistently promoted the in vitro expansion
